Reference: PubChem BioAssay AID248 (DTP/NCI, 2004)
Values joined by “and” are separate entries in the source; they are usually repeats but may differ in a detail not shown here. Equal entries are not always repeated. Toxic doses and inconclusive results are not listed. No stated cut-off is given here; in the data, active means T/C of 150% or more; inactive means T/C below 125%.

Test system: L1210 leukemia ip in BDF1 mice, survival T/C
Assay: NCI In Vivo Anticancer Drug Screen. Data for tumor model L1210 Leukemia (intraperitoneal) in B6D2F1 (BDF1) mice
Conditions: endpoint: mean survival time, higher = longer survival
Outline: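 Each compound was tested against a transplantable tumor grown in mice. The endpoint was survival, with treated animals benchmarked against vehicle controls as a simple ratio.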

[1] = dose: 100.0 mg/kg/injection, schedule: Q01DX001 (ip), vehicle: saline with Tween-80
[2] = dose: 100.0 mg/kg/injection, schedule: Q01DX001 (ip), vehicle: other
[3] = dose: 400.0 mg/kg/injection, schedule: Q01DX001 (ip), vehicle: other
[4] = dose: 100.0 mg/kg/injection, schedule: Q01DX001 (ip), vehicle: carboxymethylcellulose (CMC)
[5] = dose: 200.0 mg/kg/injection, schedule: Q01DX001 (ip), vehicle: carboxymethylcellulose (CMC)
[6] = dose: 400.0 mg/kg/injection, schedule: Q01DX001 (ip), vehicle: carboxymethylcellulose (CMC)
[7] = dose: 100.0 mg/kg/injection, schedule: Q01DX009 (ip), vehicle: saline with Tween-80
[8] = dose: 200.0 mg/kg/injection, schedule: Q01DX009 (ip), vehicle: saline with Tween-80
[9] = dose: 400.0 mg/kg/injection, schedule: Q01DX009 (ip), vehicle: saline with Tween-80
[10] = dose: 100.0 mg/kg/injection, schedule: Q04DX003 (ip), vehicle: Klucel (hydroxypropylcellulose) (HPC)
[11] = dose: 200.0 mg/kg/injection, schedule: Q04DX003 (ip), vehicle: Klucel (hydroxypropylcellulose) (HPC)
[12] = dose: 100.0 mg/kg/injection, schedule: Q01DX009 (ip), vehicle: Klucel (hydroxypropylcellulose) (HPC)
[13] = dose: 100.0 mg/kg/injection, schedule: Q04DX003 (ip), vehicle: saline
[14] = dose: 200.0 mg/kg/injection, schedule: Q01DX009 (ip), vehicle: Klucel (hydroxypropylcellulose) (HPC)
[15] = dose: 200.0 mg/kg/injection, schedule: Q04DX003 (ip), vehicle: saline
[16] = dose: 400.0 mg/kg/injection, schedule: Q01DX009 (ip), vehicle: Klucel (hydroxypropylcellulose) (HPC)
[17] = dose: 400.0 mg/kg/injection, schedule: Q04DX003 (ip), vehicle: saline
[18] = dose: 100.0 mg/kg/injection, schedule: Q01DX001 (ip), vehicle: saline
[19] = dose: 200.0 mg/kg/injection, schedule: Q01DX001 (ip), vehicle: saline
[20] = dose: 400.0 mg/kg/injection, schedule: Q01DX001 (ip), vehicle: saline
[21] = dose: 400.0 mg/kg/injection, schedule: Q04DX003 (ip), vehicle: Klucel (hydroxypropylcellulose) (HPC)

Measured: T/C

O=C(NCc1ccccc1)C(F)(F)F
inactive: [1] 102 % of control | dose: 200.0 mg/kg/injection, schedule: Q01DX001 (ip), vehicle: saline with Tween-80 102 % of control | dose: 400.0 mg/kg/injection, schedule: Q01DX001 (ip), vehicle: saline with Tween-80 100 % of control

O=C1/C(=C/c2ccc3c(c2)OCO3)C2CCC(N2)/C1=C\c1ccc2c(c1)OCO2
inactive: [2] 89 % of control | [3] 101 % of control

COC(=O)C(C)NC(=O)C(C)NC(=O)c1cnc2ccccc2n1 (stereo not given)
inactive: [4] 89 % of control | [5] 93 % of control

CC[As](=O)(O)c1ccc([N+](=O)[O-])cc1
inactive: [1] 101 % of control

[N-]=[N+]=NC(=O)C1C(c2ccccc2)=C1c1ccccc1
inactive: dose: 100.0 mg/kg/injection, schedule: Q01DX001 (ip), vehicle: steriod suspending solution 93 % of control | dose: 200.0 mg/kg/injection, schedule: Q01DX001 (ip), vehicle: steriod suspending solution 106 % of control | dose: 400.0 mg/kg/injection, schedule: Q01DX001 (ip), vehicle: steriod suspending solution 98 % of control

CC(C#N)c1cccc(C(=O)O)c1 (stereo not given)
inactive: [4] 105 % of control | [5] 105 % of control | [6] 96 % of control

O=C(NCC(O)CNC(=O)Nc1ccc(C2=NCCCN2)cc1)Nc1ccc(C2=NCCCN2)cc1
inactive: dose: 1.25 mg/kg/injection, schedule: Q01DX Z (ip), vehicle: carboxymethylcellulose (CMC) 98 % of control | dose: 2.5 mg/kg/injection, schedule: Q01DX Z (ip), vehicle: carboxymethylcellulose (CMC) 101 % of control | dose: 5.0 mg/kg/injection, schedule: Q01DX Z (ip), vehicle: carboxymethylcellulose (CMC) 90 % of control | dose: 10.0 mg/kg/injection, schedule: Q01DX Z (ip), vehicle: carboxymethylcellulose (CMC) 97 % of control and 106 % of control | dose: 20.0 mg/kg/injection, schedule: Q01DX Z (ip), vehicle: carboxymethylcellulose (CMC) 104 % of control

CCCCOC(=O)C1CCCC1=O (stereo not given)
inactive: [7] 94 % of control | dose: 100.0 mg/kg/injection, schedule: Q04DX003 (ip), vehicle: saline with Tween-80 97 % of control | [8] 103 % of control | dose: 200.0 mg/kg/injection, schedule: Q04DX003 (ip), vehicle: saline with Tween-80 94 % of control | [9] 95 % of control | dose: 400.0 mg/kg/injection, schedule: Q04DX003 (ip), vehicle: saline with Tween-80 97 % of control

CC(=O)n1ccnc1/C=C\c1ccc([N+](=O)[O-])s1
inactive: [10] 103 % of control | [11] 101 % of control

COc1ccc(CC(C(=O)O)C(Cc2ccc(OC)c(OC)c2)C(=O)O)cc1OC (stereo not given)
inactive: dose: 50.0 mg/kg/injection, schedule: Q01DX009 (ip), vehicle: Klucel (hydroxypropylcellulose) (HPC) 94 % of control | [12] 104 % of control | [13] 118 % of control | [14] 95 % of control | [15] 114 % of control | [16] 91 % of control | [17] 98 % of control

COc1ccc(Cl)cc1NC(=O)Nc1c(C)n(C)n(-c2ccccc2)c1=O
inactive: [18] 90 % of control | [7] 89 % of control | [13] 97 % of control | [19] 89 % of control | [8] 89 % of control | [15] 101 % of control | [20] 94 % of control | [9] 87 % of control | [17] 92 % of control

O=C(O)C1C2C=CC21 (stereo not given)
inactive: [2] 96 % of control | dose: 200.0 mg/kg/injection, schedule: Q01DX001 (ip), vehicle: other 101 % of control | [3] 102 % of control

CC1CCOP(=O)(Sc2ccccc2)O1 (stereo not given)
inactive: dose: 75.0 mg/kg/injection, schedule: Q04DX002 (ip), vehicle: Klucel (hydroxypropylcellulose) (HPC) 102 % of control | dose: 100.0 mg/kg/injection, schedule: Q04DX002 (ip), vehicle: Klucel (hydroxypropylcellulose) (HPC) 106 % of control | dose: 150.0 mg/kg/injection, schedule: Q04DX002 (ip), vehicle: Klucel (hydroxypropylcellulose) (HPC) 113 % of control | dose: 200.0 mg/kg/injection, schedule: Q04DX002 (ip), vehicle: Klucel (hydroxypropylcellulose) (HPC) 109 % of control

COCc1ccc([N+](=O)[O-])o1
inactive: [18] 101 % of control | [19] 103 % of control | [20] 101 % of control

CSc1nc(SCc2ccc(Cl)cc2)ncc1C
inactive: dose: 50.0 mg/kg/injection, schedule: Q01DX Z (ip), vehicle: methylcellulose (MC) 92 % of control | dose: 200.0 mg/kg/injection, schedule: Q01DX Z (ip), vehicle: methylcellulose (MC) 94 % of control

CCCc1ccccc1NC(=O)NCCCl
inactive: dose: 25.0 mg/kg/injection, schedule: Q04DX003 (ip), vehicle: Klucel (hydroxypropylcellulose) (HPC) 106 % of control | dose: 50.0 mg/kg/injection, schedule: Q04DX003 (ip), vehicle: Klucel (hydroxypropylcellulose) (HPC) 101 % of control | [10] 105 % of control and 86 % of control | [11] 89 % of control | [21] 88 % of control

CCc1c(O)nc2ccccn2c1=O
inactive: [4] 98 % of control | [5] 109 % of control | [6] 113 % of control

CC1C(=O)C2C1CS2(=O)=O (stereo not given)
inactive: dose: 100.0 mg/kg/injection, schedule: Q04DX002 (ip), vehicle: DMSO 97 % of control | dose: 200.0 mg/kg/injection, schedule: Q04DX002 (ip), vehicle: DMSO 97 % of control | dose: 400.0 mg/kg/injection, schedule: Q04DX002 (ip), vehicle: DMSO 91 % of control

Cn1c(=O)c2c(nc(CCC3CCCC3)n2C)n(C)c1=O
inactive: dose: 50.0 mg/kg/injection, schedule: Q01DX001 (ip), vehicle: carboxymethylcellulose (CMC) 92 % of control | [4] 97 % of control | [5] 90 % of control | [6] 97 % of control

CNC(=O)Nc1ccc(OC)cc1OC
inactive: [12] 105 % of control | [10] 106 % of control | [14] 94 % of control | [11] 111 % of control | [16] 98 % of control | [21] 103 % of control

COC(=O)c1[nH]cnc1/N=N/N(C)C
inactive: dose: 6.75 mg/kg/injection, schedule: Q01DX009 (ip), vehicle: saline 119 % of control | dose: 9.3 mg/kg/injection, schedule: Q01DX015 (ip), vehicle: saline 113 % of control | dose: 11.25 mg/kg/injection, schedule: Q01DX Z (ip), vehicle: saline 124 % of control | dose: 22.25 mg/kg/injection, schedule: Q04DX003 (ip), vehicle: saline 115 % of control | dose: 44.5 mg/kg/injection, schedule: Q04DX003 (ip), vehicle: saline 120 % of control | dose: 57.5 mg/kg/injection, schedule: Q01DX001 (ip), vehicle: saline 114 % of control | dose: 62.0 mg/kg/injection, schedule: Q01DX Z (ip), vehicle: saline 121 % of control | dose: 88.0 mg/kg/injection, schedule: Q01DX001 (ip), vehicle: saline 112 % of control | dose: 88.8 mg/kg/injection, schedule: Q01DX001 (ip), vehicle: saline 124 % of control | dose: 90.0 mg/kg/injection, schedule: Q01DX015 (ip), vehicle: saline 114 % of control | [18] 124 % of control | dose: 115.0 mg/kg/injection, schedule: Q01DX001 (ip), vehicle: saline 114 % of control | dose: 133.0 mg/kg/injection, schedule: Q01DX001 (ip), vehicle: saline 115 % of control | [19] 121 % of control | dose: 231.0 mg/kg/injection, schedule: Q01DX001 (ip), vehicle: saline 123 % of control
active: dose: 27.0 mg/kg/injection, schedule: Q01DX009 (ip), vehicle: saline 150 % of control | dose: 31.0 mg/kg/injection, schedule: Q01DX Z (ip), vehicle: saline 171 % of control | dose: 46.0 mg/kg/injection, schedule: Q01DX Z (ip), vehicle: saline 160 % of control | dose: 54.0 mg/kg/injection, schedule: Q01DX015 (ip), vehicle: saline 164 % of control
